Source: the supplement of paper PMC6331611
Converted amounts (≈) assume the structure as drawn. Counter-ions that a name gives are not always drawn.

Assays:
[1] = system: Salmonella enterica serovar Typhimurium SL1344; experiment: intracellular MIC (10-fold luminescence reduction); higher = less potent; details: RAW264.7 macrophages
RAW264.7 = experiment: cytotoxicity (LDH release relative to maximum lysis); higher = more toxic; details: 50 µM; 2 h
[2] = system: Salmonella enterica serovar Typhimurium SL1344

SMILES	intracellular MIC [1] [µM]	cytotoxicity (RAW264.7) [%]	MIC ([2]; LPM pH 5.8) [µM]	MIC ([2]; MHB) [µM]	MIC ([2]; MOPS glucose minimal medium) [µM]
CN(C)[C@@H]1C(O)=C(C(N)=O)C(=O)[C@@]2(O)C(O)=C3C(=O)c4c(O)ccc(Cl)c4[C@@](C)(O)[C@H]3C[C@@H]12 [CHLORTETRACYCLINE HYDROCHLORIDE]	≤ 0.78	8.37	≤ 0.78	25	6.25
Cc1cc(C2CCCCC2)n(O)c(=O)c1 [CICLOPIROX OLAMINE]	> 50	15.5	≤ 0.78	> 50	> 50
CCn1nc(C(=O)O)c(=O)c2cc3c(cc21)OCO3 [CINOXACIN]	≤ 0.78	8.11	≤ 0.78	> 50	> 50
O=C(O)c1cn(C2CC2)c2cc(N3CCNCC3)c(F)cc2c1=O [CIPROFLOXACIN]	≤ 0.78	21.5	> 50	–	≤ 0.78
NC1CCN(c2c(F)cc3c(=O)c(C(=O)O)cn(C4CC4)c3c2Cl)C1 (centres undefined) [CLINAFOXACIN HYDROCHLORIDE]	≤ 0.78	15.8	≤ 0.78	≤ 0.78	≤ 0.78
Oc1c(I)cc(Cl)c2cccnc12 [CLIOQUINOL]	> 50	20	≤ 0.78	50 (≈ 15.3 µg/mL)	50 (≈ 15.3 µg/mL)
O=S(=O)(O)NC1CCCCC1 [CYCLAMIC ACID]	> 50	7.97	> 50	> 50	> 50
CN1CCC(=C2c3ccccc3C=Cc3ccccc32)CC1 [CYPROHEPTADINE HYDROCHLORIDE]	> 50	6.22	> 50	> 50	> 50
CN(C)[C@@H]1C(O)=C(C(N)=O)C(=O)[C@@]2(O)C(O)=C3C(=O)c4c(O)ccc(Cl)c4[C@@H](O)[C@H]3C[C@@H]12 [DEMECLOCYCLINE HYDROCHLORIDE]	≤ 0.78	8.71	≤ 0.78	6.25	1.56
CN(C)CC(c1ccc(O)cc1)C1(O)CCCCC1 (centres undefined) [DESVENLAFAXINE SUCCINATE]	25	8.25	> 50	> 50	> 50
COc1ccc(Cc2cnc(N)nc2N)cc1OC [DIAVERIDINE]	1.56	6.9	50 (≈ 13 µg/mL)	1.56 (≈ 0.406 µg/mL)	6.25 (≈ 1.63 µg/mL)
CN1CCN(c2cc3c(cc2F)c(=O)c(C(=O)O)cn3-c2ccc(F)cc2)CC1 [DIFLOXACIN HYDROCHLORIDE]	1.56	6.88	≤ 0.78	≤ 0.78	≤ 0.78
C[C@H]1O[C@@H](n2cc(F)c(=O)[nH]c2=O)[C@H](O)[C@@H]1O [DOXIFLURIDINE]	6.25	13	≤ 0.78	> 50	1.56 (≈ 0.384 µg/mL)
C[C@H]1c2cccc(O)c2C(=O)C2=C(O)[C@]3(O)C(=O)C(C(N)=O)=C(O)[C@@H](N(C)C)[C@@H]3[C@@H](O)[C@@H]21 [DOXYCYCLINE HYDROCHLORIDE]	≤ 0.78	8.01	1.56	6.25	6.25
O.O.O=C([O-])CN(CCN(CC(=O)[O-])CC(=O)O)CC(=O)O.[Na+].[Na+] [EDETATE DISODIUM]	> 50	19.1	> 50	> 50	50
CCn1cc(C(=O)O)c(=O)c2cc(F)c(N3CCNCC3)nc21 [ENOXACIN]	3.13	20.8	6.25 (≈ 2 µg/mL)	≤ 0.78	≤ 0.78
CC[C@H]1OC(=O)[C@H](C)[C@@H](O[C@H]2C[C@@](C)(OC)[C@@H](O)[C@H](C)O2)[C@H](C)[C@@H](O[C@@H]2O[C@H](C)C[C@H](N(C)C)[C@H]2O)[C@](C)(O)C[C@@H](C)C(=O)[C@H](C)[C@@H](O)[C@]1(C)O [ERYTHROMYCIN]	1.56	6.32	> 50	> 50	> 50
C[C@]12CC[C@@H]3c4ccc(OC(=O)c5ccccc5)cc4CC[C@H]3[C@@H]1CC[C@@H]2O [ESTRADIOL BENZOATE]	> 50	20.3	> 50	> 50	> 50
CCOc1ccc(Cc2nccc3cc(OCC)c(OCC)cc23)cc1OCC [ETHAVERINE HYDROCHLORIDE]	> 50	12.8	> 50	> 50	> 50
CCN(CC)C(C)CN1c2ccccc2Sc2ccccc21 (centres undefined) [ETHOPROPAZINE HYDROCHLORIDE]	≤ 0.78	11.8	> 50	> 50	> 50
Nc1ccncc1 [FAMPRIDINE]	> 50	20.4	> 50	> 50	> 50
CS(=O)(=O)c1ccc([C@@H](O)[C@@H](CF)NC(=O)C(Cl)Cl)cc1 [FLORFENICOL]	6.25	21.3	≤ 0.78	12.5 (≈ 4.48 µg/mL)	6.25 (≈ 2.24 µg/mL)

SMILES	intracellular MIC [1] [µM]	cytotoxicity (RAW264.7) [%]	MIC ([2]; LPM pH 5.8) [µM]	MIC ([2]; MHB) [µM]	MIC ([2]; MOPS glucose minimal medium) [µM]
O=c1[nH]c(=O)n([C@H]2C[C@H](O)[C@@H](CO)O2)cc1F [FLOXURIDINE]	> 50	18.7	≤ 0.78	≤ 0.78	≤ 0.78
CC1CCc2cc(F)cc3c(=O)c(C(=O)O)cn1c23 (centres undefined) [FLUMEQUINE]	> 50	20.1	≤ 0.78	6.25 (≈ 1.63 µg/mL)	1.56 (≈ 0.408 µg/mL)
O=c1[nH]cc(F)c(=O)[nH]1 [FLUOROURACIL]	≤ 0.78	8.29	≤ 0.78	> 50	≤ 0.78
O=C1OCCN1/N=C/c1ccc([N+](=O)[O-])o1 [FURAZOLIDONE]	≤ 0.78	6.45	6.25 (≈ 1.41 µg/mL)	12.5 (≈ 2.81 µg/mL)	12.5 (≈ 2.81 µg/mL)
COc1c(N2CCNC(C)C2)c(F)cc2c(=O)c(C(=O)O)cn(C3CC3)c12 (centres undefined) [GATIFLOXACIN]	≤ 0.78	21.7	≤ 0.78	≤ 0.78	≤ 0.78
CO/N=C1\CN(c2nc3c(cc2F)c(=O)c(C(=O)O)cn3C2CC2)CC1CN (centres undefined) [GEMIFLOXACIN MESYLATE]	1.56	5.86	≤ 0.78	≤ 0.78	≤ 0.78
CCCCC(CC)CN1CN(CC(CC)CCCC)CC(C)(N)C1 (centres undefined) [HEXETIDINE]	> 50	49.5	25 (≈ 8.49 µg/mL)	> 50	> 50
CCCCCN(C)CCC(O)(P(=O)(O)O)P(=O)(O)O [IBANDRONATE SODIUM]	1.56	6.92	> 50	> 50	> 50
C[C@H]1COc2c(N3CCN(C)CC3)c(F)cc3c(=O)c(C(=O)O)cn1c23 [LEVOFLOXACIN]	≤ 0.78	21	≤ 0.78	≤ 0.78	≤ 0.78
N[C@@H](Cc1cc(I)c(Oc2ccc(O)c(I)c2)c(I)c1)C(=O)O [LIOTHYRONINE]	> 50	6.23	> 50	> 50	> 50
CCOC(=O)Nc1nc2ccccc2[nH]1 [LOBENDAZOLE]	> 50	21.1	50 (≈ 10.3 µg/mL)	> 50	> 50
CCn1cc(C(=O)O)c(=O)c2cc(F)c(N3CCNC(C)C3)c(F)c21 (centres undefined) [LOMEFLOXACIN HYDROCHLORIDE]	≤ 0.78	15.9	1.56	≤ 0.78	≤ 0.78
CCCCc1nc(Cl)c(CO)n1Cc1ccc(-c2ccccc2-c2nnn[nH]2)cc1 [LOSARTAN]	> 50	5.92	> 50	> 50	> 50
Cc1ccc(Nc2c(F)cccc2Cl)c(CC(=O)O)c1 [LUMIRACOXIB]	≤ 0.78	7.05	> 50	> 50	> 50
NCc1ccc(S(N)(=O)=O)cc1 [MAFENIDE HYDROCHLORIDE]	1.56	7.52	> 50	> 50	> 50
CNCCCC12CCC(c3ccccc31)c1ccccc12 [MAPROTILINE HYDROCHLORIDE]	3.13	34	> 50	> 50	> 50
C=C1c2c(Cl)ccc(O)c2C(=O)C2=C(O)[C@]3(O)C(=O)C(C(N)=O)=C(O)[C@@H](N(C)C)[C@@H]3[C@@H](O)[C@H]12.O=C(O)c1cc(S(=O)(=O)O)ccc1O [MECLOCYCLINE SULFOSALICYLATE]	3.13	16.3	≤ 0.78	≤ 0.78	≤ 0.78
Cc1ccc(Cl)c(Nc2ccccc2C(=O)O)c1Cl [MECLOFENAMATE SODIUM]	> 50	7.81	> 50	> 50	> 50
CC(=O)[C@H]1CC[C@H]2[C@@H]3C[C@H](C)C4=CC(=O)CC[C@]4(C)[C@H]3[C@@H](O)C[C@]12C [MEDRYSONE]	> 50	7.6	> 50	> 50	> 50
CCCNC(C)(C)COC(=O)c1ccccc1 [MEPRYLCAINE HYDROCHLORIDE]	1.56	6.92	> 50	> 50	> 50
C[C@@H](O)[C@H]1C(=O)N2C(C(=O)O)=C(S[C@@H]3CN[C@H](C(=O)N(C)C)C3)[C@H](C)[C@H]12 [MEROPENEM]	3.13	14.9	3.13 (≈ 1.2 µg/mL)	12.5 (≈ 4.79 µg/mL)	6.25 (≈ 2.4 µg/mL)
